Results on three molecules are retold here after US20060167076A1, “Acutumine and acutumine compounds synthesis and use” (priority 2002, published 2006).

For assay [1], the system named is scopolamine-induced memory impairments. As to the kind of experiment: Morris water maze test with scopolamine as amnesic agent. The class given is in vivo, mouse. The settings on record: 60 mg/kg p.o.; scopolamine 5 mg/kg i.p.; control animals 43 seconds. The source says:
The anti-amnesic effects of the compounds of the present invention have been evaluated using the Morris water maze test (Morris et al., Nature, 1986, 319, 774-776) in the mouse and scopolamine as amnesic agent. Kumming strain mice (18-24 g, Shanghai Experimental Animal Centre) of either sex were used. Mice were placed on the water maze (80×50×20 cm) and trained to find the platform. Following the period of one day's habituation, each mouse received 3 daily training sessions for seven days. Mice were trained to a criterion of finding the platform within 20 seconds and with <2 errors of entering a dead-end. Once a mouse met the criterion, training was reduced to one daily session until all mice met the criterion. Trained mice were randomly assigned to sub-groups. Compounds under study were dissolved in distilled water and administered by the oral route 40 minutes before behavioural testing. Scopolamine (5 mg/kg, i.p.) was injected 30 minutes before the test. The number of errors and the time for reaching the platform were recorded. Data were expressed as means±s.e.m. Statistical analysis was performed using ANOVA followed by Duncan's multiple-range test.

Assay [2] concerns animal experimental models. As to the kind of experiment: Mnemocognition in animal experimental models (unspecified). The assay is classed as in vivo.
In assay [3] the test system is Wistar rat. Nature of the assay: Social recognition in the Wistar rat. The settings on record: 20 mg/kg; second encounter after 2 hours. The class given is in vivo. The source says:
Initially described in 1982 by THOR and HOLLOWAY (J. Comp. Physiol., 1982, 29 1000-1006), the social recognition test has subsequently been proposed by various authors (DANTZER et al., Psychopharmacology, 1987, 91, 363-368; PERIO et al., Psychopharmacology, 1989, 97, 262-268) for studying the mnemocognitive effects of new compounds. The test is based on the natural expression of the olfactory memory of the rat and its natural tendency to forget and allows evaluation of memorisation, by recognition of a young congeneric animal, by an adult rat. A young rat (21 days), taken at random, is placed for 5 minutes in the cage housing an adult rat. With the aid of a video device, the experimenter observes the social recognition behaviour of the adult rat and measures its overall duration. The young rat is then removed from the adult rat's cage and is placed in its own cage until the second introduction. The adult rat is given the compound under test and, after 2 hours, is again brought into the presence (5 minutes) of the young rat. The social recognition behaviour is then observed again and its duration measured. The assessment criterion is the difference (T2−T1), expressed in seconds, between the “recognition” times of the 2 encounters.

Assay [4] deals with Wistar rat. Nature of the assay: Object recognition in the Wistar rat. The class given is in vivo. The following applies: 10 mg/kg; second session 24 hours later. The source says:
The object recognition test in the Wistar rat was initially developed by ENNACEUR and DELACOUR (Behav. Brain Res., 1988, 31, 47-59). The test is based on the spontaneous exploratory activity of the animal and has the characteristics of episodic memory in humans. This memory test is sensitive to ageing (SCALI et al., Eur. J. Pharmacol., 1997, 325, 173-180) and to cholinergic dysfunctions (BARTOLINI et al., Pharm. Biochem. Behav. 1996, 53(2), 277-283) and is based on the differences in the exploration of 2 objects of fairly similar shape—one familiar, the other new. Prior to the test, the animals are habituated to the environment (an enclosure without an object). In the course of a first session, the rats are placed (3 minutes) in the enclosure, in which there are 2 identical objects. The duration of exploration is measured for each object. In the course of the second session (3 minutes), 24 hours later, 1 of the 2 objects is replaced by a new object. The duration of exploration is measured for each object. The assessment criterion is the difference, Delta, expressed in seconds, between the exploration times for the new object and for the familiar object in the course of the second session.

A value given as a limit tells only on which side of the number the result lay.

`CCC(=O)OC1C(OC)=CC(=O)[C@]12[C@@H](Cl)CC13C(OC)=C(OC)C(=O)CC12CCN3C` (stereo partly drawn) [Example 1, Spiro[(4S,5S)-4-(ethoxycarbonyl)-3-methoxy-2-cyclopenten-1-one-5:3(2S)-2-chloro-3aS,7aS-((2,3)-1-methylpyrrolidine)-6,7-dimethoxy-1,2,3,3a,4,7a-hexahydro-5H-inden-5-one]]: the “time for reaching the platform” value in assay [1] was ≤ 18 s. In the case of `COC1=CC(=O)C2(C1O)[C@@H](Cl)CC13C(OC)=C(OC)C(=O)CC21CCN3C` (stereo partly shown) [acutumine], the mnemocognition-facilitating properties entry in assay [2] was “mnemocognition-facilitating properties”. On to “Spiro[(4S,5S)-4-hydroxy-3-methoxy-2-cyclopenten-1-one-5:3(2S)-2-chloro-3aS,7aS-((2,3)-1-methylpyrrolidine)-6,7-dimethoxy-1,2,3,3a,4,7a-hexahydro-5H-inden-5-one oxime] [Example 4]”, for which the “difference (T2−T1) between recognition times of the 2 encounters” value in the assay with Wistar rat [3] was -45 s. The “difference, Delta, between exploration times for the new and the familiar object” value in the assay on Wistar rat [4] was determined as 8 s.
